Experimental data reported in PubChem BioAssay AID330 (DTP/NCI, 2004).
Values joined by “and” are separate entries in the source; they are usually repeats but may differ in a detail not shown here. Equal values may be shown once. Toxic doses and inconclusive results are not listed. How the source made its calls: active means survival T/C of 150% or more; inactive means T/C below 125% in these data.

Test system: P388 leukemia ip, CD2F1 mice, survival T/C
Test: NCI In Vivo Anticancer Drug Screen. Data for tumor model P388 Leukemia (intraperitoneal) in CD2F1 (CDF1) mice
Settings: endpoint: median survival time, higher = longer survival
In short: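 Mice carrying the transplanted tumor received test compound or vehicle. Survival was recorded in each group, and the value is the treated-group measurement divided by that of the vehicle-treated control group.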

[1] = dose: 25.0 mg/kg/injection, schedule: Q01DX009 (ip), vehicle: distilled water + Tween-80
[2] = dose: 50.0 mg/kg/injection, schedule: Q01DX005 (ip), vehicle: saline with Tween-80
[3] = dose: 100.0 mg/kg/injection, schedule: Q01DX005 (ip), vehicle: saline with Tween-80
[4] = dose: 60.0 mg/kg/injection, schedule: Q01DX005 (ip), vehicle: saline with Tween-80
[5] = dose: 120.0 mg/kg/injection, schedule: Q01DX005 (ip), vehicle: saline with Tween-80
[6] = dose: 240.0 mg/kg/injection, schedule: Q01DX005 (ip), vehicle: saline with Tween-80
[7] = dose: 100.0 mg/kg/injection, schedule: Q04DX002 (ip), vehicle: saline with Tween-80
[8] = dose: 200.0 mg/kg/injection, schedule: Q01DX005 (ip), vehicle: saline with Tween-80
[9] = dose: 50.0 mg/kg/injection, schedule: Q01DX005 (ip), vehicle: Klucel (hydroxypropylcellulose) (HPC)
[10] = dose: 100.0 mg/kg/injection, schedule: Q01DX005 (ip), vehicle: Klucel (hydroxypropylcellulose) (HPC)
[11] = dose: 200.0 mg/kg/injection, schedule: Q01DX005 (ip), vehicle: Klucel (hydroxypropylcellulose) (HPC)
[12] = dose: 50.0 mg/kg/injection, schedule: Q01DX009 (ip), vehicle: saline with Tween-80
[13] = dose: 100.0 mg/kg/injection, schedule: Q01DX009 (ip), vehicle: saline with Tween-80
[14] = dose: 200.0 mg/kg/injection, schedule: Q01DX009 (ip), vehicle: saline with Tween-80

Measured: T/C

CNC(=O)OCc1c(C)oc(-c2ccc(Cl)c(Cl)c2)c1COC(=O)NC
inactive: [1] 102 % of control | dose: 50.0 mg/kg/injection, schedule: Q01DX009 (ip), vehicle: distilled water + Tween-80 97 % of control | dose: 100.0 mg/kg/injection, schedule: Q01DX009 (ip), vehicle: distilled water + Tween-80 97 % of control | dose: 200.0 mg/kg/injection, schedule: Q01DX009 (ip), vehicle: distilled water + Tween-80 91 % of control | dose: 400.0 mg/kg/injection, schedule: Q01DX009 (ip), vehicle: distilled water + Tween-80 90 % of control

CCN(CC)c1ccc2[nH]c3c(C(N)=O)cc(=O)c(=O)c=3oc2c1
inactive: dose: 12.5 mg/kg/injection, schedule: Q01DX005 (ip), vehicle: saline with Tween-80 104 % of control and 107 % of control | dose: 25.0 mg/kg/injection, schedule: Q01DX005 (ip), vehicle: saline with Tween-80 104 % of control and 117 % of control | [2] 107 % of control and 120 % of control | [3] 113 % of control and 122 % of control and 123 % of control

COC1=CCC(CCNC(=O)c2cc3c(cc2[N+](=O)[O-])OCO3)=CC1
inactive: [4] 101 % of control | [5] 93 % of control | [6] 98 % of control

C[C@@H]1C(=O)O[C@H]2[C@H]1CC[C@@]1(C)C=C(Cl)C(=O)[C@@H](C)[C@H]21
inactive: dose: 50.0 mg/kg/injection, schedule: Q04DX002 (ip), vehicle: saline with Tween-80 100 % of control | [7] 117 % of control

CCOC(=O)c1[nH]c(=O)c2ccccc2c1O
inactive: dose: 12.5 mg/kg/injection, schedule: Q01DX009 (ip), vehicle: suspension in saline 91 % of control | dose: 25.0 mg/kg/injection, schedule: Q01DX009 (ip), vehicle: suspension in saline 92 % of control | dose: 50.0 mg/kg/injection, schedule: Q01DX009 (ip), vehicle: suspension in saline 99 % of control | dose: 100.0 mg/kg/injection, schedule: Q01DX009 (ip), vehicle: suspension in saline 98 % of control

O=C(O)Cc1c[nH]c2cc(Cl)cc(Cl)c12
inactive: [7] 101 % of control | dose: 200.0 mg/kg/injection, schedule: Q04DX002 (ip), vehicle: saline with Tween-80 104 % of control | dose: 400.0 mg/kg/injection, schedule: Q04DX002 (ip), vehicle: saline with Tween-80 101 % of control

Cc1ccc2c(O)c3c(cc2c1O)C(=O)c1ccccc1C3=O
inactive: [2] 100 % of control | [3] 107 % of control | [8] 109 % of control

CCOC(=O)/C=C1/C(=O)OC2C1OC1OC(C)(C)OC12 (stereo not given)
inactive: dose: 3.75 mg/kg/injection, schedule: Q01DX005 (ip), vehicle: saline with Tween-80 98 % of control | dose: 7.5 mg/kg/injection, schedule: Q01DX005 (ip), vehicle: saline with Tween-80 97 % of control

O=C(O)C1=C/C(=C(/c2ccccc2)c2cc(C(=O)O)c(O)c3ccccc23)c2ccccc2C1=O
inactive: dose: 50.0 mg/kg/injection, schedule: Q01DX009 (ip), vehicle: saline 99 % of control | dose: 60.0 mg/kg/injection, schedule: Q01DX005 (ip), vehicle: saline 104 % of control | dose: 100.0 mg/kg/injection, schedule: Q01DX009 (ip), vehicle: saline 100 % of control | dose: 120.0 mg/kg/injection, schedule: Q01DX005 (ip), vehicle: saline 103 % of control | dose: 200.0 mg/kg/injection, schedule: Q01DX009 (ip), vehicle: saline 103 % of control | dose: 240.0 mg/kg/injection, schedule: Q01DX005 (ip), vehicle: saline 95 % of control

Nc1c2c(c(N)c3c1C(=O)c1ccccc1C3=O)OCO2
inactive: [4] 100 % of control | [5] 98 % of control | [6] 98 % of control

CCC/C(=N\N=C(N)N)c1ccc(Cl)cc1
inactive: dose: 25.0 mg/kg/injection, schedule: Q04DX002 (ip), vehicle: saline with Tween-80 100 % of control

O=C(O)c1cc2c(c(C(=O)O)c1O)CCCC2
inactive: dose: 6.25 mg/kg/injection, schedule: Q01DX005 (ip), vehicle: saline 94 % of control | dose: 12.5 mg/kg/injection, schedule: Q01DX005 (ip), vehicle: saline 92 % of control | dose: 25.0 mg/kg/injection, schedule: Q01DX005 (ip), vehicle: saline 94 % of control

NC(N)=N/N=C/c1ccc(-c2cc3ccc(/C=N/N=C(N)N)cc3s2)cc1
inactive: dose: 12.5 mg/kg/injection, schedule: Q01DX005 (ip), vehicle: Klucel (hydroxypropylcellulose) (HPC) 114 % of control | dose: 25.0 mg/kg/injection, schedule: Q01DX005 (ip), vehicle: Klucel (hydroxypropylcellulose) (HPC) 116 % of control | [9] 121 % of control | [10] 118 % of control | [11] 107 % of control

COc1cc2c(cc1O)C(CSC)Cc1cc3c(cc1N(C)CC2)OCO3 (stereo not given)
inactive: dose: 12.5 mg/kg/injection, schedule: Q01DX009 (ip), vehicle: saline with Tween-80 100 % of control | dose: 25.0 mg/kg/injection, schedule: Q01DX009 (ip), vehicle: saline with Tween-80 100 % of control | [12] 102 % of control | [13] 88 % of control | [14] 95 % of control

CN=C(NCCSCc1ccc2ccccc2n1)NS(=O)(=O)c1ccccc1
inactive: dose: 50.0 mg/kg/injection, schedule: Q01DX005 (ip), vehicle: saline 106 % of control | dose: 100.0 mg/kg/injection, schedule: Q01DX005 (ip), vehicle: saline 106 % of control | dose: 200.0 mg/kg/injection, schedule: Q01DX005 (ip), vehicle: saline 100 % of control

C=CC(c1ccccc1)c1cc2c(cc1OC)OCO2 (stereo not given)
inactive: [2] 105 % of control | [3] 96 % of control | [8] 100 % of control

CCOC(=O)C/[N+]([O-])=C/c1ccccc1
inactive: dose: 12.5 mg/kg/injection, schedule: Q01DX009 (ip), vehicle: other 100 % of control | dose: 25.0 mg/kg/injection, schedule: Q01DX009 (ip), vehicle: other 98 % of control | dose: 50.0 mg/kg/injection, schedule: Q01DX009 (ip), vehicle: other 117 % of control | dose: 100.0 mg/kg/injection, schedule: Q01DX009 (ip), vehicle: other 100 % of control | dose: 200.0 mg/kg/injection, schedule: Q01DX009 (ip), vehicle: other 100 % of control

N#CC1=C(Nc2ccccc2)SC(c2cccs2)NC1=O (stereo not given)
inactive: dose: 60.0 mg/kg/injection, schedule: Q01DX005 (ip), vehicle: Klucel (hydroxypropylcellulose) (HPC) 108 % of control | dose: 120.0 mg/kg/injection, schedule: Q01DX005 (ip), vehicle: Klucel (hydroxypropylcellulose) (HPC) 108 % of control

Cn1nc(-c2ccccc2)c([N+](=O)[O-])c1NCc1ccccc1
inactive: [9] 97 % of control | [10] 100 % of control | [11] 97 % of control

COc1ccc2[nH]c(=O)c(Br)c(C)c2c1
inactive: [2] 101 % of control | [3] 95 % of control | [8] 100 % of control

c1csc(-c2[nH]nc3c2CCc2ccccc2-3)c1
inactive: dose: 3.75 mg/kg/injection, schedule: Q01DX005 (ip), vehicle: Klucel (hydroxypropylcellulose) (HPC) 122 % of control | dose: 7.5 mg/kg/injection, schedule: Q01DX005 (ip), vehicle: Klucel (hydroxypropylcellulose) (HPC) 114 % of control | dose: 15.0 mg/kg/injection, schedule: Q01DX005 (ip), vehicle: Klucel (hydroxypropylcellulose) (HPC) 114 % of control

NC(=O)c1nsc(-c2ccc([N+](=O)[O-])cc2)c1N
inactive: [9] 101 % of control | [10] 96 % of control | [11] 92 % of control

CC(=O)OC(C(=O)O)N1C(=O)C2C3C=CC(C2C1=O)C1C2C(=O)N(C(OC(C)=O)C(=O)O)C(=O)C2C31 (stereo not given)
inactive: dose: 25.0 mg/kg/injection, schedule: Q01DX009 (ip), vehicle: water 103 % of control | dose: 50.0 mg/kg/injection, schedule: Q01DX009 (ip), vehicle: water 110 % of control | dose: 100.0 mg/kg/injection, schedule: Q01DX009 (ip), vehicle: water 110 % of control and 113 % of control and 123 % of control

N#Cc1ccc(NC(=O)Nc2nccs2)cc1
inactive: dose: 12.5 mg/kg/injection, schedule: Q01DX009 (ip), vehicle: distilled water + Tween-80 108 % of control | [1] 117 % of control

CCN(CC)C(=O)C(F)C(F)(F)C(F)(F)COCc1ccccc1 (stereo not given)
inactive: [12] 99 % of control | [13] 100 % of control | [14] 100 % of control

CC(C)c1cccc(C(C)C)c1NC(=O)OC1CCCCC1C (stereo not given)
inactive: [4] 94 % of control | [5] 90 % of control | [6] 98 % of control

CS(=O)(=O)C(CCC(=O)c1cccs1)C(=O)c1ccccc1 (stereo not given)
inactive: [9] 89 % of control | [10] 91 % of control | [11] 89 % of control

CC1(C)CO/C(=C/C(=O)c2ccccc2)N1C(=O)c1ccccc1
inactive: [4] 99 % of control | [5] 90 % of control
